Experimental data taken from ChEMBL document CHEMBL5291721, “A preclinical secondary pharmacology resource illuminates target-adverse drug reaction associations of marketed drugs” (Nat Commun, 2023).

Tests used:
Histamine H1 receptor [1] = biological target: T1, Histamine H1 receptor (Homo sapiens, UniProt P35367); format: functional, cell-based
Histamine H1 receptor [2] = biological target: T1, Histamine H1 receptor; format: functional, cell-based; remark: listed apart in the source
Substance-P receptor = Substance-P receptor (Homo sapiens, UniProt P25103)
Chain of Substance-P receptor (P25103 whole entry): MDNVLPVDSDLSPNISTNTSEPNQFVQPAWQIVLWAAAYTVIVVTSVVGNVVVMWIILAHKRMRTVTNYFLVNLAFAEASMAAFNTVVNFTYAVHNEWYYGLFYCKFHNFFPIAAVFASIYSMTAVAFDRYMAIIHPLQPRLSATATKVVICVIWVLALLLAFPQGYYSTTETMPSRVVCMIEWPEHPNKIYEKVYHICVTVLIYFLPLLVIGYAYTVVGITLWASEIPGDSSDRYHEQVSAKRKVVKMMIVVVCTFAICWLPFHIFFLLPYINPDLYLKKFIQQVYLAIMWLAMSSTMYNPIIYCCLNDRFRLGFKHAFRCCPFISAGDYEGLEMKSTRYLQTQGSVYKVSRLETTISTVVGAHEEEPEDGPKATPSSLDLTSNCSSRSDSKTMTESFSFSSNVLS

[3] = biological target: Hydroxycarboxylic acid receptor 2 (Homo sapiens, UniProt Q8TDS4)
Estrogen receptor beta = Estrogen receptor beta (Homo sapiens, UniProt Q92731)
Chain of Estrogen receptor beta (Q92731 whole entry): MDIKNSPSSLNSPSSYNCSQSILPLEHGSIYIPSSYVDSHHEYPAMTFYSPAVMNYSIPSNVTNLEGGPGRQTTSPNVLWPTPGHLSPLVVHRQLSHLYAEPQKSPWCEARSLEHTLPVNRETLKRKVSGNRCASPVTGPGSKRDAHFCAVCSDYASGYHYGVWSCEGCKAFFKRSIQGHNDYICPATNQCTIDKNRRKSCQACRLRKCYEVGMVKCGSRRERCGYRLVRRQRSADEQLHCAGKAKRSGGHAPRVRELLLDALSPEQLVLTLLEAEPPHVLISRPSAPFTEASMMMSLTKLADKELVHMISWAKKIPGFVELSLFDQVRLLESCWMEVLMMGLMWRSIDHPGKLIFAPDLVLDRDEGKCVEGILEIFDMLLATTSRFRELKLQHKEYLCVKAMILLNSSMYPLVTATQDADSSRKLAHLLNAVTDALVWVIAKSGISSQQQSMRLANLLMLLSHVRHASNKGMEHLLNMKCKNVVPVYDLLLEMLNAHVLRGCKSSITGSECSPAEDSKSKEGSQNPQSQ

D(4) dopamine receptor = biological target: T2, D(4) dopamine receptor (Homo sapiens, UniProt P21917)
T2 sequence (P21917 whole entry): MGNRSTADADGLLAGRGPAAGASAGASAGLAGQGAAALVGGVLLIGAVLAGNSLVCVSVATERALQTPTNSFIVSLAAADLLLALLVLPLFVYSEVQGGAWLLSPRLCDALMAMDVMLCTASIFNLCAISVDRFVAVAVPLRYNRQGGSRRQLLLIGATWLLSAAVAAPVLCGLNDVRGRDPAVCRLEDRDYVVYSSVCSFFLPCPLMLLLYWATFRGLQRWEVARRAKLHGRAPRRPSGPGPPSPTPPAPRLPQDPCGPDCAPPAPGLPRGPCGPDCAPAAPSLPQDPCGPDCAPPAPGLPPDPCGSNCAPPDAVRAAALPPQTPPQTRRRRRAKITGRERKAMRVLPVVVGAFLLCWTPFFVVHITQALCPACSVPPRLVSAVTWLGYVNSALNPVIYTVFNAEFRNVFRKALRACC

D(1A) dopamine receptor = D(1A) dopamine receptor (Homo sapiens, UniProt P21728)
Chain of D(1A) dopamine receptor (P21728 whole entry): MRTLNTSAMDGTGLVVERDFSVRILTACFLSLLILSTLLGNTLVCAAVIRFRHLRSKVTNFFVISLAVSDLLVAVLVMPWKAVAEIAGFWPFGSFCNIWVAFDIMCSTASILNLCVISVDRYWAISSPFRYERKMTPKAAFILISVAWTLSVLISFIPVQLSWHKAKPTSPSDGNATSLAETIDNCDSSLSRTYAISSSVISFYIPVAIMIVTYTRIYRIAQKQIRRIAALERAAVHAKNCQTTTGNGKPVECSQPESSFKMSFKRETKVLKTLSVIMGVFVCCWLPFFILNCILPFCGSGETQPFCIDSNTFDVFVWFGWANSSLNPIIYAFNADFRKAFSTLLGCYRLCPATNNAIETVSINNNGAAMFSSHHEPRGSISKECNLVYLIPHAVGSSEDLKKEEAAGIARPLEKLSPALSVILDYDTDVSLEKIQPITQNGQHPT

[4] = biological target: Gamma-aminobutyric acid type B receptor subunit 1 (Homo sapiens, UniProt Q9UBS5)
Chain of Gamma-aminobutyric acid type B receptor subunit 1 (Q9UBS5 whole entry): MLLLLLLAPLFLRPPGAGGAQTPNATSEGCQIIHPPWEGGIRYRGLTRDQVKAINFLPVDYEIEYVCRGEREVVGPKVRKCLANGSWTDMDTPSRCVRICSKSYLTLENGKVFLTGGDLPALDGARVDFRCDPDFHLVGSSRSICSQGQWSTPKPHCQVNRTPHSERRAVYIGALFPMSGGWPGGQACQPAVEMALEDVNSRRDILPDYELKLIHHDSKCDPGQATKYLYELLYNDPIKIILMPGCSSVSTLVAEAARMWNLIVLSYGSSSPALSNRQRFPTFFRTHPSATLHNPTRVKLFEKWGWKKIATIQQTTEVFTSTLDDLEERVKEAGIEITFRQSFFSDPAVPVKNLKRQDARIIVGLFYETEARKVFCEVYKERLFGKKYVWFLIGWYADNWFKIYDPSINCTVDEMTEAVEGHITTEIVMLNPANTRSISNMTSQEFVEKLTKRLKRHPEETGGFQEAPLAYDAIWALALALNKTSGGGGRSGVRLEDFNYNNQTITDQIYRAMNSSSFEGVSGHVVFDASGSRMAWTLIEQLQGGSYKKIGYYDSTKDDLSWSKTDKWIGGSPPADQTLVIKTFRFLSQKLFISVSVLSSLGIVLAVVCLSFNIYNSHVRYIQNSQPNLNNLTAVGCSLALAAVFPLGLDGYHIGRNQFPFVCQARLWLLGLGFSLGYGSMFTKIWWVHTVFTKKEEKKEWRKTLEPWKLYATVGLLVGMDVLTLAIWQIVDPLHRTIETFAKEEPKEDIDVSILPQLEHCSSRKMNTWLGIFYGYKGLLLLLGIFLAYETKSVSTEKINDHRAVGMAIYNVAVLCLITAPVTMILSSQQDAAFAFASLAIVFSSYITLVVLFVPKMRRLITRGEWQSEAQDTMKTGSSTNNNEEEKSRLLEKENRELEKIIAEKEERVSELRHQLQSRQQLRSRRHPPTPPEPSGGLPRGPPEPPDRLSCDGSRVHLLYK

[5] = biological target: Beta-1 adrenergic receptor (Homo sapiens, UniProt P08588); format: functional, cell-based
[6] = biological target: 5-hydroxytryptamine receptor 7 (Homo sapiens, UniProt P34969)
D(1B) dopamine receptor = D(1B) dopamine receptor (Homo sapiens, UniProt P21918)
[7] = biological target: 5-hydroxytryptamine receptor 6 (Homo sapiens, UniProt P50406)
Cannabinoid receptor 1 = Cannabinoid receptor 1 (Homo sapiens, UniProt P21554); format: functional
Substance-K receptor = biological target: T3, Substance-K receptor (Homo sapiens, UniProt P21452)
T3 sequence (P21452 whole entry): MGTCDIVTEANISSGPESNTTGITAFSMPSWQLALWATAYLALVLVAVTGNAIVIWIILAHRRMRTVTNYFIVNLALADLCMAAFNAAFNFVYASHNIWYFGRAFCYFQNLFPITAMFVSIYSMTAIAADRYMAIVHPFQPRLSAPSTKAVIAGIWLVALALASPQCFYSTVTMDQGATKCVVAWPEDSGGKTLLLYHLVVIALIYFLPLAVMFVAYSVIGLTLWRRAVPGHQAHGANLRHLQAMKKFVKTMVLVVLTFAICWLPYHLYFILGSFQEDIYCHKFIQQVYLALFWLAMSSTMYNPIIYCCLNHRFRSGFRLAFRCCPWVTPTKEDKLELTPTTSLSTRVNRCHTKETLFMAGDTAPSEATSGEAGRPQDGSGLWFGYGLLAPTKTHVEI

[8] = biological target: T4, Muscarinic acetylcholine receptor M4 (Homo sapiens, UniProt P08173)
T4 sequence (P08173 whole entry): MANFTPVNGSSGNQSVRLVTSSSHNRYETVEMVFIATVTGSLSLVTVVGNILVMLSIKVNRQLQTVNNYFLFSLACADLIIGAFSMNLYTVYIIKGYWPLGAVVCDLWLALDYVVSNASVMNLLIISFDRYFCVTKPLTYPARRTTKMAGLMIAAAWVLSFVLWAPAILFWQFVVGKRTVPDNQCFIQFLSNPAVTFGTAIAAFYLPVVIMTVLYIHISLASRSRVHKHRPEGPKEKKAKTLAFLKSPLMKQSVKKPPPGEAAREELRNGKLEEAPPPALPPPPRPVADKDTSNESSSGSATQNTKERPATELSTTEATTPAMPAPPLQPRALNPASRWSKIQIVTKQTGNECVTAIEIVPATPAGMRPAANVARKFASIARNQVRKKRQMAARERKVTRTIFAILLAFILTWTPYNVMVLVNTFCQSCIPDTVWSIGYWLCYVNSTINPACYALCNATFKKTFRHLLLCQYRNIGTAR

[9] = biological target: 5-hydroxytryptamine receptor 5A (Homo sapiens, UniProt P47898)
[10] = biological target: T5, Peroxisome proliferator-activated receptor gamma (Homo sapiens, UniProt P37231); format: functional
T5 sequence (P37231 whole entry): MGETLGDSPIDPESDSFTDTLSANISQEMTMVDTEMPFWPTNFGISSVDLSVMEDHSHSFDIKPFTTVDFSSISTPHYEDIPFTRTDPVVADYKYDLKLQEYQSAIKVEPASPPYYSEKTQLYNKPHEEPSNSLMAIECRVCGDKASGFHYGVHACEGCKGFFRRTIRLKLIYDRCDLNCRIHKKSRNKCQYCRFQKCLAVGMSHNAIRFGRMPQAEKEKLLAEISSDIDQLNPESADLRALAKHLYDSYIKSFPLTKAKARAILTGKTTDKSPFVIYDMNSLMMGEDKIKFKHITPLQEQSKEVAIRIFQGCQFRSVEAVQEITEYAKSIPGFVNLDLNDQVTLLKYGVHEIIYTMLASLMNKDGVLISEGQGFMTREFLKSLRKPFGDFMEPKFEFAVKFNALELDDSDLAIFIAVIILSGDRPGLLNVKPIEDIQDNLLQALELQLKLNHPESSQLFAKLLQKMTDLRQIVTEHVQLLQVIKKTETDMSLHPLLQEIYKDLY

[11] = biological target: T5, Peroxisome proliferator-activated receptor gamma; format: functional; remark: listed apart in the source
[12] = biological target: Sodium channel protein type 5 subunit alpha (Homo sapiens, UniProt Q14524); format: functional, cell-based
Chain of Sodium channel protein type 5 subunit alpha (Q14524 whole entry): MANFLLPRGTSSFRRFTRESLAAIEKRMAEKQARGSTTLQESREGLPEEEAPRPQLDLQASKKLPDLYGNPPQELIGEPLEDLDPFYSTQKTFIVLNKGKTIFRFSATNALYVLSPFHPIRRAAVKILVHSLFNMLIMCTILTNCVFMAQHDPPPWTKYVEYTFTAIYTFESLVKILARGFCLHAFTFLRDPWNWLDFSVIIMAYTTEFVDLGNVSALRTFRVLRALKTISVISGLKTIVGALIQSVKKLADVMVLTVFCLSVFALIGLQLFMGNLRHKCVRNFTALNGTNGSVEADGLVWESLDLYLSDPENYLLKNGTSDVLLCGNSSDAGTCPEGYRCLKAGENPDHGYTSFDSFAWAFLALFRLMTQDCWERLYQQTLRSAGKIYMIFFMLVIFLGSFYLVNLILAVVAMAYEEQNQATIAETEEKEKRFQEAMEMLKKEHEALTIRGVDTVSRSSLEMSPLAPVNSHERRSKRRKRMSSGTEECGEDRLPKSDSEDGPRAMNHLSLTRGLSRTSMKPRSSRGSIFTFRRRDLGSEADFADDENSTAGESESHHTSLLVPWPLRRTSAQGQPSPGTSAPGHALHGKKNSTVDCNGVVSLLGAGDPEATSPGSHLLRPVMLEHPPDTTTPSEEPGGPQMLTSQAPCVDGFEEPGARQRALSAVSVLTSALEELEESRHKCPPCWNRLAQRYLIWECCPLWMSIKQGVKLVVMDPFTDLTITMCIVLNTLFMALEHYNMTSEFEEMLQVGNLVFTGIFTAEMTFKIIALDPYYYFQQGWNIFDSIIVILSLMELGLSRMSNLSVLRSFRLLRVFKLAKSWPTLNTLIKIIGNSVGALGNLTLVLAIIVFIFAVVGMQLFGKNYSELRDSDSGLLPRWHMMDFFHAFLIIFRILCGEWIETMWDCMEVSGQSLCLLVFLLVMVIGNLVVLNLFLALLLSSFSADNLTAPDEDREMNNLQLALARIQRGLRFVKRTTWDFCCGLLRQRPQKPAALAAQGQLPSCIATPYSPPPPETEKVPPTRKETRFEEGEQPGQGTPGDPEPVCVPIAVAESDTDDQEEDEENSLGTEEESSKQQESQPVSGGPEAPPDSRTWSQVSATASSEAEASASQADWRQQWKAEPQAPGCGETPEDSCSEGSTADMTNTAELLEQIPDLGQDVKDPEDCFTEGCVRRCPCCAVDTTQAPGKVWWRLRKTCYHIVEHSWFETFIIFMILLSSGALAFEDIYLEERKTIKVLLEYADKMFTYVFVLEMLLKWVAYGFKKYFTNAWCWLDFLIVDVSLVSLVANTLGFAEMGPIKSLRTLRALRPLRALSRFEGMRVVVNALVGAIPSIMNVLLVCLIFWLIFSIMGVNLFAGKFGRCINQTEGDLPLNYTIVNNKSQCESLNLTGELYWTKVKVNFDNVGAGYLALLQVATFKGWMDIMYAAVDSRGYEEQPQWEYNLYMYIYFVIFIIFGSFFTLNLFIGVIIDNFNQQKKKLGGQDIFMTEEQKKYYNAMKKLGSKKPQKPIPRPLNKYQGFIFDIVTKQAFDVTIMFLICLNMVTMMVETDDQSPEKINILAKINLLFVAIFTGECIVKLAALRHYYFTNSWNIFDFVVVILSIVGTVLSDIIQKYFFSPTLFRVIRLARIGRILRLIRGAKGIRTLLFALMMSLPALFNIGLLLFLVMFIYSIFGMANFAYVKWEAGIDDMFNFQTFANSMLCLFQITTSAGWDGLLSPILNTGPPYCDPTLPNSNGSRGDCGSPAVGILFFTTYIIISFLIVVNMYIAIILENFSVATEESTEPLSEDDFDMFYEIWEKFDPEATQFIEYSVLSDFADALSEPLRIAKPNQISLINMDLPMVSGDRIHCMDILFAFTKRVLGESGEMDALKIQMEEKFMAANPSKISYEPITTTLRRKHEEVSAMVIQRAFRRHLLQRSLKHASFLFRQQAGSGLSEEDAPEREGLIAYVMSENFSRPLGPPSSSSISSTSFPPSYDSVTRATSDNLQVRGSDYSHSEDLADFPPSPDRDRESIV

[13] = biological target: Voltage-dependent L-type calcium channel subunit alpha-1C (Homo sapiens, UniProt Q13936); format: functional, cell-based
Note: assay procedure not described here.

T1 sequence (P35367 whole entry): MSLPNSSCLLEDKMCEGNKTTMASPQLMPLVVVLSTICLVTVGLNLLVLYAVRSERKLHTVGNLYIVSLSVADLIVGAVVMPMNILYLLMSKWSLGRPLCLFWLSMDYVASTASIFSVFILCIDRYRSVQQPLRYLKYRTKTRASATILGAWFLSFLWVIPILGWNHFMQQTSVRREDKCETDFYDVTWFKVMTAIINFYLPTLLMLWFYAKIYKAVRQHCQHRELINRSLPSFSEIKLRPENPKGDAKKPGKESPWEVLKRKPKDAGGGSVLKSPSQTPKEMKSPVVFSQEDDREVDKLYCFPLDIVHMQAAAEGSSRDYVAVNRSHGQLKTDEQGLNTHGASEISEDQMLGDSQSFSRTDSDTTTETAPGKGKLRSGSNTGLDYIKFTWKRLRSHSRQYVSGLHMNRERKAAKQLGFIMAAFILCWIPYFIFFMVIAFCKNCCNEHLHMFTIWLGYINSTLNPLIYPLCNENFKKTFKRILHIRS

## C=C1CC[C@@]2(O)[C@H]3Cc4ccc(O)c5c4[C@@]2(CCN3CC2CC2)[C@H]1O5
Histamine H1 receptor [1]
  AC50: > 30 µM
Histamine H1 receptor [2]
  AC50: > 30 µM

## Nc1ncnc2c1ncn2[C@@H]1O[C@H](COP(=O)(O)O)[C@@H](O)[C@H]1O [ADENOSINE PHOSPHATE]
Histamine H1 receptor [1]
  AC50: > 30 µM
Histamine H1 receptor [2]
  AC50: > 30 µM

## COc1ccc2cccc(CCNC(C)=O)c2c1 [AGOMELATINE]
Substance-P receptor
  AC50: > 10 µM
[3]
  AC50: > 10 µM
Estrogen receptor beta
  AC50: > 30 µM
D(4) dopamine receptor
  AC50: > 10 µM
D(1A) dopamine receptor
  AC50: > 10 µM

## CN1CCc2cccc3c2[C@H]1Cc1ccc(O)c(O)c1-3 [APOMORPHINE]
Estrogen receptor beta
  AC50: > 30 µM

## CC(C)c1c(C(=O)Nc2ccccc2)c(-c2ccccc2)c(-c2ccc(F)cc2)n1CC[C@@H](O)C[C@@H](O)CC(=O)O [ATORVASTATIN]
[4]
  AC50: > 10 µM

## NC(CO)C(=O)NNCc1ccc(O)c(O)c1O (stereo not given) [BENSERAZIDE]
Histamine H1 receptor [1]
  AC50: > 30 µM
D(1A) dopamine receptor
  AC50: > 10 µM
Histamine H1 receptor [2]
  AC50: > 30 µM

## CCC(C(=O)O)c1ccc(CC(C)C)cc1 (stereo not given) [BUTIBUFEN]
[5]
  AC50: > 30 µM

## CN(C)C(=O)OC1N=C(c2ccccc2)c2cc(Cl)ccc2N(C)C1=O (stereo not given) [CAMAZEPAM]
[6]
  AC50: > 10 µM
D(1B) dopamine receptor
  AC50: > 10 µM
[4]
  AC50: > 10 µM
Substance-P receptor
  AC50: > 10 µM
[7]
  AC50: > 10 µM
Cannabinoid receptor 1
  AC50: > 10 µM
Substance-K receptor
  AC50: > 10 µM
[8]
  AC50: > 10 µM
Estrogen receptor beta
  AC50: > 30 µM
D(4) dopamine receptor
  AC50: > 10 µM
[9]
  AC50: > 10 µM
D(1A) dopamine receptor
  AC50: > 10 µM

## CCCCCOC(=O)Nc1nc(=O)n([C@@H]2O[C@H](C)[C@@H](O)[C@H]2O)cc1F [CAPECITABINE]
[10]
  AC50: > 30 µM
[11]
  AC50: > 30 µM

## CC(C)(Oc1ccc(C2CC2(Cl)Cl)cc1)C(=O)O (stereo not given) [CIPROFIBRATE]
[10]
  AC50: > 30 µM
[11]
  AC50: > 30 µM

## [H]/N=C(/N)c1ccc(NCc2nc3cc(C(=O)N(CCC(=O)O)c4ccccn4)ccc3n2C)cc1 [DABIGATRAN]
[10]
  AC50: > 30 µM
[12]
  AC50: > 30 µM
[11]
  AC50: > 30 µM

## CCCCOc1cc(C(=O)NCCN(CC)CC)c2ccccc2n1 [DIBUCAINE]
[12]
  AC50: 1.8 µM
[13]
  AC50: 22 µM

## CN[C@@H](C)[C@H](O)c1ccccc1 [EPHEDRINE]
Substance-P receptor
  AC50: > 10 µM
[12]
  AC50: > 30 µM
[3]
  AC50: > 10 µM
Estrogen receptor beta
  AC50: > 30 µM
D(4) dopamine receptor
  AC50: > 10 µM
D(1A) dopamine receptor
  AC50: > 10 µM

## CCNC(C)Cc1cccc(C(F)(F)F)c1 (stereo not given) [FENFLURAMINE]
[4]
  AC50: > 10 µM
Substance-P receptor
  AC50: > 10 µM

## O=C1CN=C(c2ccccc2)c2cc(Cl)ccc2N1CC(F)(F)F [HALAZEPAM]
Histamine H1 receptor [1]
  AC50: > 30 µM
[10]
  AC50: > 30 µM
[11]
  AC50: > 30 µM
Histamine H1 receptor [2]
  AC50: > 30 µM

## CCCCCN(C)CCC(O)(P(=O)(O)O)P(=O)(O)O [IBANDRONIC ACID]
[6]
  AC50: > 10 µM
Substance-P receptor
  AC50: > 10 µM
[7]
  AC50: > 10 µM
Cannabinoid receptor 1
  AC50: > 10 µM
Estrogen receptor beta
  AC50: > 30 µM
D(4) dopamine receptor
  AC50: > 10 µM
D(1A) dopamine receptor
  AC50: > 10 µM
